Test results: US8987301B2, “Heteroarylaminoquinolines as TGF-beta receptor kinase inhibitors” (Merck Patent GmbH, priority 2009, dated 2015)

biological target: T1, TβR (GST-ALK5) (Homo sapiens, UniProt P36897); assay: In-vitro (enzyme) flashplate kinase assay, TβR activity; assay type: biochemical; details: GST-ALK5, GST-SMAD2 substrate, 3 mM ATP
T1 sequence (P36897 34-503): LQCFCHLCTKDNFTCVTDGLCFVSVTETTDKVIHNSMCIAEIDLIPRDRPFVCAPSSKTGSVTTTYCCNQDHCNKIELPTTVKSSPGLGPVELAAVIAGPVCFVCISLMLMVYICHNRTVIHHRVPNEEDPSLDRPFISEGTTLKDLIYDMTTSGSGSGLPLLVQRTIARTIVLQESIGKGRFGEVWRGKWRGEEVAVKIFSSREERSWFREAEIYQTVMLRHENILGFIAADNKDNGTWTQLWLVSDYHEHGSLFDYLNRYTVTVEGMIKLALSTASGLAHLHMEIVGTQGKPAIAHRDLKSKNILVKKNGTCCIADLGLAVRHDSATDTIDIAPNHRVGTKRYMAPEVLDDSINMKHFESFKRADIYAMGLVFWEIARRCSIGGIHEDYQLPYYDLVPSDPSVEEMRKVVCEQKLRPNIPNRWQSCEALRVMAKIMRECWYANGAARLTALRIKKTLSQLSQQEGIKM
Method: In-Vitro (Enzyme) Assay for Determination of the Efficacy of Inhibitors of the Inhibition of TGF-Beta-Mediated Effects
The kinase assay was carried out as 384-well flashplate assay. […] The reaction was stopped using 25 μl of 200 mM EDTA solution, filtered with suction at room temperature after 30 min, and the wells were washed with 3 times 100 μl of 0.9% NaCl solution. Radioactivity was measured in the TopCount. The IC50 values were calculated using RS1. Above and below, all temperatures were indicated in ° C.

| Structure (SMILES) | IC50 [nM] |
| --- | --- |
| COc1cc(Nc2cc(-c3cc(Cl)ccc3F)nc3ccccc23)ncn1 [compound 104] | > 10000 |
| CN1CCN(c2cc(Nc3cc(-c4cc(Cl)ccc4F)nc4ccccc34)cc(Cl)n2)CC1 [compound 097] | > 10000 |
| Fc1ccc(Cl)cc1-c1cc(Nc2cccnc2)c2ccccc2n1 [compound 012] | > 10000 |
| CN(C)c1cccc(-c2cc(Nc3ccncn3)c3ccccc3n2)c1 [compound 081] | > 10000 |
| Cc1cncc(-c2cc(Nc3ccncc3)c3ccccc3n2)c1 [compound 066] | > 10000 |
| Fc1ccc(Cl)cc1-c1cc(Cc2ccncc2)c2ccccc2n1 [compound 004] | > 10000 |
| Nc1ccncc1Nc1cc(-c2cc(Cl)ccc2F)nc2ccccc12 [compound 029] | > 10000 |
| CS(=O)(=O)Nc1cnccc1N(c1cc(-c2cc(Cl)ccc2F)nc2ccccc12)S(C)(=O)=O [compound 040] | 1000 to 10000 |

More lines, now with the values ahead:

| IC50 [nM] | Structure (SMILES) |
| --- | --- |
| 1000 to 10000 | Fc1ccc(Cl)cc1-c1cc(Sc2ccncc2)c2ccccc2n1 [compound 011] |
| 500 to 1000 | CC(C)(C)Sc1cnccc1Nc1cc(-c2cc(Cl)ccc2F)nc2ccccc12 [compound 094] |
| 500 to 1000 | Oc1ccc2c(Nc3cc(-c4cc(Cl)ccc4F)nc4ccccc34)ccnc2c1 [compound 098] |
| < 500 | CN1CCC(NC(=O)c2cnccc2Nc2cc(-c3cc(Cl)ccc3F)nc3ccccc23)CC1 [compound 125] |
| 500 to 1000 | CN1CCN(C(=O)Nc2cnccc2Nc2cc(-c3cc(Cl)ccc3F)nc3ccccc23)CC1 [compound 062] |
| 1000 to 10000 | c1ccc2c(Nc3ccncc3)cc(C3CCCCC3)nc2c1 [compound 047] |
| < 500 | Fc1ccc(Cl)cc1-c1cc(Nc2ccncc2C(F)(F)F)c2ccccc2n1 [compound 008] |
| < 500 | COCC(=O)Nc1cnccc1Nc1cc(-c2cc(Cl)ccc2F)nc2ccccc12 [compound 086] |
| < 500 | Nc1cc(Nc2cc(-c3cc(Cl)ccc3F)nc3ccccc23)ncn1 [compound 038] |
